Results on 21 compounds are retold here after patent US9469645B2, “Compounds and compositions for the treatment of parasitic diseases” (Novartis AG, priority 2009, dated 2016).

The test system of one test is W2 strain. In words: parasite proliferation assay in infected red blood cells (SYBR Green I), W2 strain. Format: cell-based. The following applies: Erythrocyte. An excerpt:
(§1) Compounds of the invention can be assayed to measure their capacity to inhibit proliferation of parasitemia in infected red blood cells. The proliferation is quantified by the addition of SYBR Green I (INVITROGEN)® dye which has a high affinity for double stranded DNA.

For another test, the system named is 3D7 P. falciparum strain. Kind of test: parasite proliferation assay in infected red blood cells (SYBR Green I). It is filed as cell-based, Plasmodium falciparum. As to conditions: Plasmodium falciparum, 3D7, Erythrocyte, 3D7 strain; read-out: EC50 3D7 strain.
Source text: as §1
The following assay illustrates the invention without in any way limiting the scope of the invention. This parasite proliferation assay measures the increase in parasite DNA content using a DNA intercalating dye, SYBR Green®.
3D7 P. falciparum strain is grown in complete culturing media until parasitemia reaches 3% to 8% with O+ human erythrocytes. 20 μl of screening media is dispensed into 384 well assay plates. […] 10 μl of lysis buffer (saponin, triton-X, EDTA) containing a 10× solution of SYBR Green I® in RPMI media is dispensed into the plates. The plates are lidded and kept at room temperature overnight for the lysis of the infected red blood cells.

Molecules are shown by their SMILES.

A word on the EC50: it is the concentration needed to bring the measured effect to its halfway point. `CC(C)(N)C(=O)N1CCn2c(nc(-c3ccccc3F)c2Nc2ccc(F)cc2)C1` [Compound 10]: the values for the EC50 in the test on W2 strain and in the test with 3D7 P. falciparum strain were 1280 nM and 1390 nM, respectively.

Regarding `CCCCCN[C@H](C(=O)N1CCn2c(nc(-c3ccc(F)cc3)c2Nc2ccc(C)cc2)C1)c1ccccc1` [Compound 296], the figures for the concentration for a half-maximal effect (EC50) with W2 strain and with 3D7 P. falciparum strain were 424 nM and 280 nM, respectively.

In the case of `CC1(C)c2nc(-c3ccc(F)cc3)c(Nc3cccc(OC(F)(F)F)c3)n2CCN1C(=O)CN` [Compound 650], the EC50 turned out to be 9 nM with W2 strain (Plasmodium falciparum) and 12 nM with 3D7 P. falciparum strain.

With `CC(C)(N)C(=O)N1CCn2c(nc(-c3cccc(F)c3)c2Nc2ccc(F)cc2C(F)(F)F)C1` [Compound 375], the values for the EC50 with W2 strain and in the test with 3D7 P. falciparum strain were 679 nM and 1130 nM, respectively.

With `N[C@H](C(=O)N1CCn2c(nc(-c3ccc(F)cc3)c2Nc2ccc(F)cc2)C1)C(F)(F)F` [Compound 195], the EC50 in the test on W2 strain and with 3D7 P. falciparum strain was 20 nM each time.

Take `CCN1CCC(CC(=O)N2CCn3c(nc(-c4ccc(F)cc4)c3Nc3ccc(C)cc3)C2)CC1` [Compound 214]: the EC50 is 2010 nM in the test on W2 strain and 2850 nM with 3D7 P. falciparum strain.

Turning to `CN(C)CCN1C(=O)Cn2c(nc(-c3ccc(F)cc3)c2Nc2ccc(Cl)c(F)c2)C1(C)C` [Compound 685], the EC50 in the test with W2 strain (Plasmodium falciparum) stood at 131 nM; in the test on 3D7 P. falciparum strain, 173 nM.

For `NC(C(=O)N1CCn2c(nc(-c3cccc(F)c3)c2Nc2ccc(Cl)c(F)c2)C1)C(F)(F)F` (stereo not drawn) [Compound 221], the values for the EC50 in the test on W2 strain and in the test on 3D7 P. falciparum strain were 83 nM and 90 nM, respectively.

For `Cc1cc(Nc2c(-c3cccc(F)c3)nc3n2CC(=O)N(CCCN)C3(C)C)ccc1F` [Compound 689], the EC50 was determined as 295 nM in the test on W2 strain (Plasmodium falciparum) and 512 nM in the test with 3D7 P. falciparum strain.

`CN(c1ccc(Cl)c(F)c1)c1c(-c2ccc(F)cc2)nc2n1CCNC2` [Compound 292, N-(4-chloro-3-fluorophenyl)-2-(4-fluorophenyl)-N-methyl-5,6,7,8-tetrahydro imidazo[1,2-a]pyrazin-3-amine]: the EC50 with W2 strain turned out to be 156 nM; with 3D7 P. falciparum strain, 150 nM.

Regarding `Cc1ccc(Nc2c(-c3ccc(F)cc3)nc3n2CC(=O)N(CCN(C)C)C3(C)C)cc1F` [Compound 681], the EC50 in the test on W2 strain (Plasmodium falciparum) came out at 196 nM; in the test with 3D7 P. falciparum strain, 272 nM.

As for `CCN1CCC(CC(=O)N2CCn3c(nc(-c4ccc(F)cc4)c3Nc3ccc(Cl)c(F)c3)C2)CC1` [Compound 304], the EC50 turned out to be 2950 nM in the test with W2 strain and 3210 nM with 3D7 P. falciparum strain.

For `Cc1ccc(Nc2c(-c3ccc(F)cc3)nc3n2CCN(C(=O)[C@@H](N)CS(C)(=O)=O)C3)cc1` [Compound 288], the figures for the half-maximal effective concentration (EC50) in the test on W2 strain and in the test on 3D7 P. falciparum strain were 1390 nM and 890 nM, respectively.

For `Cc1c(Cc2ccccc2)nc2n1[C@H](CCc1ccccc1)CN(C(=O)c1cccnc1)[C@H]2Cc1ccccc1` [Compound 283], the EC50 in the test with W2 strain was 3490 nM; in the test on 3D7 P. falciparum strain it was 5520 nM.

For the compound `Cc1ccc(Nc2c(-c3ccc(F)cc3)nc3n2CCN(C(=O)[C@@H](O)C(C)(C)C)C3)cc1` [Compound 110], the 50% effective concentration (EC50) with W2 strain is 15 nM; with 3D7 P. falciparum strain, 20 nM.

With `Cc1ccc(Nc2c(-c3ccc(F)cc3)nc3n2CCN(C(=O)C(C)(C)Nc2ccc(C)cc2)C3)cc1` [Compound 386], the half-maximal effective concentration (EC50) with W2 strain was found to be 3030 nM; in the test with 3D7 P. falciparum strain it was 2620 nM.

For the compound `Cc1cc(C)cc(Nc2c(-c3ccccc3)nc3n2CCN(C(=O)CN)C3)c1` [Compound 2], the EC50 in the test on W2 strain came out at 3350 nM; with 3D7 P. falciparum strain it was 3480 nM.

Consider `Cc1ccc(Nc2c(-c3ccc(F)cc3)nc3n2CCN(C(=O)[C@@H](C)N)C3)cc1` [Compound 84], for which the values for the EC50 with W2 strain and in the test with 3D7 P. falciparum strain were 74 nM and 50 nM, respectively.

As to `C[C@H](C(=O)N1CCn2c(nc(-c3cccc(F)c3)c2Nc2ccc(Cl)c(F)c2)C1)c1ccccc1` [Compound 223], the results for the EC50 in the test on W2 strain and in the test with 3D7 P. falciparum strain were 206 nM and 260 nM, respectively.

Take `Cc1cc(Nc2c(-c3cccc(F)c3)nc3n2C(C)(C)CN(C(=O)CN)C3)ccc1F` [Compound 625]: the EC50 with W2 strain (Plasmodium falciparum) came out at 194 nM; with 3D7 P. falciparum strain, 170 nM.

Regarding `CC(C)(N)C(=O)N1CCn2c(nc(-c3ccccc3)c2Nc2ccc(F)cc2)C1` [Compound 11], the EC50 is 168 nM in the test with W2 strain and 200 nM in the test with 3D7 P. falciparum strain.
